This note sets out measurements from patent US20200405697A1, “Antitumor Agent” (Taiho Pharmaceutical Co., Ltd, priority 2017, published 2020).

Broadly, the IC50 is the concentration that gives 50% inhibition.

Structures are written as SMILES.

Assay [1] deals with NCI-H460 cells. In words: Cell proliferation inhibitory effect on human cancer cell lines: NCI-H460. Conditions: 72 h, NCI-H460, Lung Cancer, ATCC recommended RPMI-1640 + 10% FBS, 1000 cell/well. The class given is cell-based. How it is done: (§1) Human derived breast cancer cell line HCC 1806 cells (American Type Culture Collection, ATCC) were daily passaged at a cell density not exceeding 80% in ATCC recommended Roswell Park Memorial Institute medium (RPMI-1640) containing 10% fetal bovine serum (FBS). In order to start the test of cell proliferation inhibitory activity, HCC 1806 cells were suspended in the above medium, after seeing at 180 μL in each well of a 96-well flat bottom plate so that the number of cells per well was 2,000, the cells were cultured at 37° C. for 1 day in an incubator containing 5% carbon dioxide gas.
(§2) On the next day, the Example compound was dissolved in DMSO, and 20 μL of a drug additive solution diluted serially with distilled water to 10 times of the final concentration was added to each well of the culture plate of the cells, and the cells were cultured at 37° C. for 72 hours in an incubator containing 5% carbon dioxide gas. […] 100 μL of an extract solution (0.1 N NaH2PO4: 100% ethanol=1:1) was added to each well and mixed, and the mixture was measured at a wavelength of 540 nm using a plate reader (MTP-450 manufactured by Corona Electric Co., Ltd.). […]
(§3) According to the method of Test Example 2, the cell proliferation inhibitory effect on various cancer cell lines as described in Table 24 was evaluated. […]

The target of assay [2] is T1, human RNR (histidine tagged human M1 and human M2 proteins) (Homo sapiens, UniProt P23921).
T1 construct: made in house; host or cells: Escherichia coli
T1 sequence (P23921 1-792): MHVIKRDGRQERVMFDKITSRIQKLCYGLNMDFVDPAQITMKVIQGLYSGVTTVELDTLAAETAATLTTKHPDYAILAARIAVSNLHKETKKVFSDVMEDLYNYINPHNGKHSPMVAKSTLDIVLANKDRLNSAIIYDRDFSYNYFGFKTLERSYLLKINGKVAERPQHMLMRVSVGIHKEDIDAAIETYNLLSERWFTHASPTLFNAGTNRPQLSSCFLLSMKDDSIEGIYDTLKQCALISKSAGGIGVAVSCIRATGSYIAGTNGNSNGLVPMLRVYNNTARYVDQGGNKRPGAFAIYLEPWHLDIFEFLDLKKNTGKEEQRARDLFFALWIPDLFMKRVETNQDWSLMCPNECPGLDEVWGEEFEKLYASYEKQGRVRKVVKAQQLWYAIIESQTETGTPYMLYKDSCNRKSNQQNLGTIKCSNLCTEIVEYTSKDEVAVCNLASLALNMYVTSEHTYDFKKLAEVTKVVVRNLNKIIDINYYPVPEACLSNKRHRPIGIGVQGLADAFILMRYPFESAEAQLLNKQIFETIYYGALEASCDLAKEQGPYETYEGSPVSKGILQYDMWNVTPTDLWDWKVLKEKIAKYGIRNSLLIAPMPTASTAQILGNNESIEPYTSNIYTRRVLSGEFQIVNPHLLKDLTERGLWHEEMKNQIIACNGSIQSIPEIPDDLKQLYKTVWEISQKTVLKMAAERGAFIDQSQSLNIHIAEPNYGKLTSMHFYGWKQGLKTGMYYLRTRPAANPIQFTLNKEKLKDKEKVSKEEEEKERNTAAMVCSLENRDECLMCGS
Briefly: Human RNR inhibition effect (dCDP formation from CDP). The assay is classed as biochemical. Conditions: 10 μM CDP, 37° C. for 30 minutes, read-out: RNR inhibitory activity IC50. Summed up: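 His-tagged human M1 (isoform 1) and N-terminal 59-aa-truncated M2 (isoform 2), E. coli-expressed, Ni-purified, preincubated 20 min with compound (1% DMSO). Reaction with 10 μM CDP, 2 mM ATP, 0.24 mM NADPH, 6 mM DTT, 4 mM Mg acetate, 100 mM KCl, 50 mM HEPES pH 7.2, 30 min at 37° C. dCDP formed quantified by reverse-phase HPLC after heat stop.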

Assay [3] deals with MV-4-11. In words: Antitumor effect in human-derived blood cancer cell line (MV-4-11) subcutaneous transplantation model (in vivo). More on the design: species or system nude mouse (BALB/cA Jcl-nu/nu). Conditions: oral, 100 mg/kg/day once per day for 14 days; RTV vs control group, Student-t test, p<0.05. How it is done: A human-derived blood cancer cell line MV-4-11 was transplanted subcutaneously into a nude mouse (BALB/cA Jcl-nu/nu, CLEA Japan, Inc.), and at the time when the tumor volume of the nude mouse on which the engrafted tumor reached 100 to 300 mm^3, four mice were assigned to each group by random stratification so that the average of the tumor volumes of each group was uniform (day 0), and the Example compound was orally administered daily at 100 mg/kg/day once per day for 14 days. Example Compound dosing solutions were prepared using 0.5% HPMC.
An electric balance for animals was used in body weight measurement. Rate of change in body weight on day n (BWCn) from body weight on day n (BWn) was calculated according to the following equation.
Rate of change in body weight BWCn (%)=(BWn−BW0)/BW0×100
Tumor volume (TV) was calculated according to the following equation by sandwiching and measuring the major axis and the minor axis with a digital caliper.
Tumor volume (mm^3)=Major axis (mm)×Minor axis (mm)×Minor axis (mm)/2
In order to compare the chronological transition of proliferation of tumor for the administration of each compound, relative tumor volume (RTV) setting the tumor volume at the time of grouping as 1 as the tumor proliferation rate was calculated according to the following formula, and the transition of the average value of RTV of each individual are shown in FIGS. 1 to 4.
RTV=(tumor volume at the day of tumor volume measurement)/(tumor volume at the time of the grouping)

The subject of assay [4] is ACHN cells. In words: Cell proliferation inhibitory effect on human cancer cell lines: ACHN. The class given is cell-based. Conditions: 72 h, Kidney Cancer, EMEM + 10% FBS, 2000 cell/well. On the procedure: as §1, §2, §3
For assay [5], the system named is A2780 cells. In words: Cell proliferation inhibitory effect on human cancer cell lines: A2780. Conditions: 72 h, A2780, Ovarian Cancer, RPMI-1640 + 10% FBS, 2000 cell/well. The assay is classed as cell-based. On the procedure:
as §1, §2, §3

Take `[2H]C([2H])([2H])C1(O)CCOc2c(S(=O)(=O)N[C@H](c3n[nH]c(=O)o3)[C@H](C)c3c(F)ccc(C)c3C)ccc(Cl)c21` (single isomer, unassigned) [Example 200A]: the half-maximal inhibitory concentration (IC50) stood at 130 nM in assay [1], 30 nM in assay [2], 130 nM in assay [4] and 130 nM in assay [5]. The “antitumor effect (relative tumor volume, RTV)” value in assay [3] is listed as “antitumor effect”.
